Where two headings read alike, the source gives them in different places.
Tests used:
human ETA receptors = biological target: T1, human ETA receptors (Homo sapiens, UniProt P25101); experiment: Binding Test #1: inhibition of 125I-ET-1 binding to ETA receptors (TE 671 cell membranes); settings: Table 1, read-out: ETA
T1 construct: endogenous in cells; host or cells: TE 671 cells (ATCC HTB 139)
T1 sequence (P25101 21-427): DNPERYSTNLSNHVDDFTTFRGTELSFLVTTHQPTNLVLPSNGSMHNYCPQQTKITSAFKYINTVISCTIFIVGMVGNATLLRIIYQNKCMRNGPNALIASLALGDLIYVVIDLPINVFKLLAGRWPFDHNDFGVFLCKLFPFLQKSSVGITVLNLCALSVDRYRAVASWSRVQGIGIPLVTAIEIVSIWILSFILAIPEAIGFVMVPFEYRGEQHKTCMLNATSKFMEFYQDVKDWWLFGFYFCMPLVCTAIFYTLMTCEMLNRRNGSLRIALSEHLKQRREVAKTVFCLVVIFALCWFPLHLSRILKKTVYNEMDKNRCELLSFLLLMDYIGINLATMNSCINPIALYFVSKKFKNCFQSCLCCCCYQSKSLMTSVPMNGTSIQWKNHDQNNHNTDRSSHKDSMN
Method in brief: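 Radioligand competition in triplicate: ¹²⁵I-endothelin-1 displaced by test compound (1 nM–100 μM final) from ETA-bearing TE 671 cell membranes in HEPES pH 7.4 binding buffer with NaCl, MgCl2 and bacitracin. Incubation 16–18 h at 4 °C (or at 24 °C); 80 nM ET-1 defines nonspecific binding; pellet radioactivity gives percent inhibition.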

human ETB receptor = biological target: T2, human ETB receptor (Homo sapiens, UniProt P24530); experiment: Binding Test #2: inhibition of 125I-ET-1 binding to ETB receptors (transfected COS7 cell membranes); settings: Table 1, read-out: ETB
T2 construct: expressed in transfected cells; host or cells: COS7 cells
T2 sequence (P24530 27-442): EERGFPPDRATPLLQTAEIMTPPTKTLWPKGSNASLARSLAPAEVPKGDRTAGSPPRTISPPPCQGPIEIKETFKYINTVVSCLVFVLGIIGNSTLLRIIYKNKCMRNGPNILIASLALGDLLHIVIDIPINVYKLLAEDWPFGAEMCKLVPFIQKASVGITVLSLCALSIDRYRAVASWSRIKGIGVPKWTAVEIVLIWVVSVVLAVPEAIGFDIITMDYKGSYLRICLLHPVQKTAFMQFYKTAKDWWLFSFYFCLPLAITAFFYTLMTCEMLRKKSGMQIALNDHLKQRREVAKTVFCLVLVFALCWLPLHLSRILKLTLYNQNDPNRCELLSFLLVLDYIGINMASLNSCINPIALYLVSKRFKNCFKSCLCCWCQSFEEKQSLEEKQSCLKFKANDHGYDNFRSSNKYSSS
Method in brief: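 Competition with 125I-ET-1 for binding to membranes from COS7 cells transfected with human ETB receptor, used at 1 μg/50 μl binding buffer. Membranes prepared in HEPES pH 7.4 with aprotinin, including a DNase/MnCl2 step at 37 °C for 30 min.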

[1] = test system: ET-1-induced pressor response; experiment: ET-1-induced pressor responses in conscious, autonomically blocked rats; format: in vivo, rat; settings: in 30 min at dosages as low as 30 mg/kg
Method: Animals were placed in a restrainer and allowed to regain consciousness. Thirty minutes later autonomic blockade was administered (atropine methyl nitrate, 3 mg/kg, IV, followed by propranalol, 2 mg/kg, IV). An hour later animals received a bolus injection of vehicle (0.5 ml) followed thirty minutes later by intravenous bolus administration of ET-1 (Control, 1 μg/kg). Following recovery from this challenge, test-compounds were administered by intravenous bolus administration (0.5 ml) and then re-challenged with ET-1 thirty minutes later. Results are expressed as the percent inhibition of the ET-1-induced pressor response after administration of the test compound compared to the pressor response induced by the control ET-1 challenge. In some cases a third ET-1 challenge was administered ninety minutes after administration of the test compound.

[2] = test system: DOCA-salt hypertensive rat; experiment: Deoxycorticosterone acetate (DOCA)-salt hypertensive rat model; format: in vivo
Method: E. Deoxycorticosterone Acetate (DOCA)-Salt Hypertensive Rat Model for Assessing in vivo Activity of Selected Compounds
Selected compounds disclosed herein have been tested for activity in the deoxycorticosterone acetate (DOCA)-salt hypertensive rat model. To perform these tests, silastic MDX4-4210 elastomer implants containing 47 mg (DOCA) were prepared according to the method of Ornmsbee et al. ((1973) the J. Pharm. Sci. 62:255-257). Briefly, DOCA is incorporated into silicon rubber implants for sustained release. To prepare the implants the DOCA is incorporated into unpolymerized silicone rubber, catalyst is added and the mixture is cast in a hemicylindrical shape.
Sprague Dawley rats (7-8 weeks old) were unilaterally nephrectomized under ketamine anesthesia and a DOCA-implant was placed on the left lateral dorsal abdomen of the animal. The rats were allowed to recover for three weeks. During recovery they were permitted free access to normal rat chow and 0.9% NaCl drinking solution in place of drinking water. The rats develop hypertension within 3 weeks.
All animals were used in the tests between 21 and 30 days post surgery. The mean arterial blood pressure in these animals ranged from 165-200 mm Hg.
On the day of experimentation, catheters were inserted under brevital anesthesia into the right femoral artery for measurement of blood pressure, and into the right femoral vein for administration of a selected compound. The animals were placed in a restrainer and allowed to recover for a minimum of 60 min or until a steady mean arterial blood pressure was recorded. At that time, the selected compound or control vehicle was administered either intravenously, as a 60 minute infusion, or orally by oral gavage. Blood pressure was recorded continuously for a further 10 hrs.

IC50 (human ETA receptors; † incubation at 24° C.)	IC50 (human ETB receptor; † incubation at 24° C.)	Compound	reduction of pressure [1]	effect on blood pressure [2]	also measured
12000 nM	9000 nM	Cc1noc(NS(=O)(=O)c2ccc(COCc3ccccc3)s2)c1Br [N-(4-bromo-3-methyl-5-isoxazolyl)-5-(benzyloxymethyl)thiophene-2-sulfonamide]	–	–	melting point: 92 °C
7.4 ± 1.1 nM	939 ± 262 nM	Cc1noc(NS(=O)(=O)c2c(Cc3ccc4c(c3)OCO4)sc3ccccc23)c1Br [N-(4-bromo-3-methyl-5-isoxazolyl)-2-[3,4-(methylenedioxy)benzyl]benzo[b]thiophene-3-sulfonamide]	–	effective in decreasing blood pressure	IC50 (human ETA receptors; incubation at 4° C.): 1.5 ± 1.4 nM; IC50 (human ETB receptor; incubation at 4° C.): 324 ± 780 nM
53 nM	16000 nM	Cc1noc(NS(=O)(=O)c2ccsc2CC(O)c2ccc3c(c2)OCO3)c1Cl (stereo not drawn) [N-(4-chloro-3-methyl-5-isoxazolyl)-2-[β-hydroxy(3,4-methylenedioxy)phenylethyl]thiophene-3-sulfonamide]	–	effective in decreasing blood pressure	–

The remaining lines, values behind:

Compound	IC50 (human ETA receptors; † incubation at 24° C.)	IC50 (human ETB receptor; † incubation at 24° C.)	reduction of pressure [1]	effect on blood pressure [2]	also measured
COc1ccc(NC(=O)c2sccc2S(=O)(=O)Nc2onc(C)c2Cl)c(C)c1 [N-(4-chloro-3-methyl-5-isoxazolyl)-2-[4-methoxy-2-methylphenyl)aminocarbonyl]thiophene-3-sulfonamide]	–	–	about 30%	–	–
CC(=O)c1cc2c(cc1NC(=O)c1sccc1S(=O)(=O)Nc1onc(C)c1Cl)OCO2 [N-(4-chloro-3-methyl-5-isoxazolyl)-2-{[2-acetyl-4,5-(methylenedioxy)phenyl]aminocarbonyl}thiophene-3-sulfonamide]	10 nM	31600 nM	about 30%	–	–
COc1cc(C#N)c(NC(=O)c2sccc2S(=O)(=O)Nc2onc(C)c2Cl)cc1OC [N-(4-chloro-3-methyl-5-isoxazolyl)-2-[{2-cyano-4,5-dimethoxyphenyl)aminocarbonyl]thiophene-3-sulfonamide]	–	–	about 30%	–	–
Cc1ccc(NC(=O)c2sccc2S(=O)(=O)Nc2onc(C)c2Cl)cc1 [N-(4-chloro-3-methyl-5-isoxazolyl)-2-[(4-tolyl)aminocarbonyl]thiophene-3-sulfonamide]	–	–	–	effective in decreasing blood pressure	–
Cc1noc(NS(=O)(=O)c2ccsc2C(N)=O)c1Br [N-(4-bromo-3-methyl-5-isoxazolyl)-2-(aminocarbonyl)thiophene-3-sulfonamide]	–	–	–	–	melting point: 168 to 170 °C

Source: patent US6683103B2, “Sulfonamides for treatment of endothelin-mediated disorders” (Texas Biotechnology Corporation, priority 1997, dated 2004)
